Several values for one entry are separate records, joined by “and”; a condition that tells them apart may be missing. Equal entries are not always repeated.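 Exposure lasted 48 hours, with cells grown in 96-well plates and compounds tested at five concentrations. GI50 is the concentration that inhibits growth by half. TGI denotes the concentration required for complete inhibition of growth.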
Tests used:
Assay in all cases: DTP human tumour cell line panel, 48 h
NCI-H23 lung = system: NCI-H23 lung
CAKI-1 renal = system: CAKI-1 renal
NCI-H460 lung = system: NCI-H460 lung
DU-145 prostate = system: DU-145 prostate
OVCAR-4 ovarian = system: OVCAR-4 ovarian
SK-MEL-2 melanoma = system: SK-MEL-2 melanoma
SK-OV-3 ovarian = system: SK-OV-3 ovarian
HT29 colon = system: HT29 colon
SF-539 CNS = system: SF-539 CNS
HOP-62 NSCLC = system: HOP-62 NSCLC

Structure (SMILES)	GI50 (NCI-H23 lung)	TGI (NCI-H23 lung)	GI50 (CAKI-1 renal) [µM]	TGI (CAKI-1 renal)	GI50 (NCI-H460 lung)	TGI (NCI-H460 lung)	GI50 (DU-145 prostate)	TGI (DU-145 prostate)	GI50 (OVCAR-4 ovarian) [µM]	TGI (OVCAR-4 ovarian) [µM]	GI50 (SK-MEL-2 melanoma)	TGI (SK-MEL-2 melanoma)	GI50 (SK-OV-3 ovarian) [µM]	TGI (SK-OV-3 ovarian) [µM]	GI50 (HT29 colon)	TGI (HT29 colon)	GI50 (SF-539 CNS)	TGI (SF-539 CNS)	GI50 (HOP-62 NSCLC) [µM]	TGI (HOP-62 NSCLC) [µM]
Clc1nc(Cl)nc(Nc2cccc3ccccc23)n1	> 100 µM	> 100 µM	> 100	> 100 µM	> 100 µM	> 100 µM	> 100 µM	> 100 µM	> 100	> 100	80.7 µM	> 100 µM	> 100	> 100	> 100 µM	> 100 µM	> 100 µM	> 100 µM	> 100	> 100
C=COC(=O)N[C@H]1CCc2cc(OC)c(OC)c(OC)c2-c2ccc(SC)c(=O)cc21		12.1 µM		45.9 µM		0.991 µM		< 0.01 µM		92.9		1.73 µM		3.5		0.149 µM		< 0.0464 µM		> 86.6
C=C1C(=O)OC2CC(C)C(C(O)CC(C)O)=CCC12 (stereo not drawn)		33.3 µM		9.26 µM		46.6 µM		30.4 µM		42.2		38.5 µM		> 100		35.7 µM		31.3 µM		> 74.3
CCc1c(Cl)c(C)cc(O)c1Cl		> 100 µM		> 100 µM		> 100 µM		> 100 µM		> 100		68.3 µM		> 100		77.6 µM		78.9 µM		> 100
Cn1c(Nc2ccc(C(F)(F)F)cc2)nc2cc(Oc3ccnc(-c4ncc(C(F)(F)F)[nH]4)c3)ccc21	0.31 µM	7.8 µM	0.0609	15.4 µM	0.197 µM	7.61 µM	2.05 µM	17.3 µM	1.21	14.4	0.0387 µM	0.728 µM	0.0385	19.1	0.124 µM	3.56 µM	0.232 µM	13.7 µM	2.85	18.6
Nc1c(C(=O)c2ccccc2)cnn1-c1ccc(F)cc1	> 25 µM	> 25 µM	> 25	> 25 µM	> 25 µM	> 25 µM	> 25 µM	> 25 µM	> 25	> 25	> 25 µM	> 25 µM	> 25	> 25	> 25 µM	> 25 µM	> 25 µM	> 25 µM	> 25	> 25
COC(=O)C1=CN(CC2=CC(=O)C(C)=CC2=O)C=C(C(=O)OC)C1c1cccc(OC)c1	18.4 µM	53.5 µM	2.45	5.61 µM	14.3 µM	49.7 µM	16.4 µM	33.3 µM	25.7	> 100	24.3 µM	> 100 µM	20.3	43.1	37 µM	> 100 µM	8.25 µM	23.3 µM	19.3	38.9
COc1ccc2c(c1)c[n+](C)c1c3cc(OC)c(OC)cc3ccc21	1.48 µM and 3.35 µM	3.08 µM and 11.8 µM		32.2 µM and 44 µM	1.23 µM and 2.7 µM	2.72 µM and 10.9 µM	3.1 µM and 8.21 µM	11.4 µM and 21.3 µM	5.48	20.4	2.3 µM and 7.11 µM	6.12 µM and 16.9 µM		29.4	1.01 µM and 3.61 µM	2.31 µM and 15.5 µM	1.95 µM and 6.15 µM	3.5 µM and 13.9 µM	4.63	15.2
BrCc1cccc(C[P+](c2ccccc2)(c2ccccc2)c2ccccc2)c1	36.2 µM	> 100 µM	> 100	> 100 µM	25 µM	> 100 µM	52.9 µM	> 100 µM	9.02	> 100	27.9 µM	> 100 µM	70.1	> 100	14.9 µM	> 100 µM	6.05 µM	> 100 µM	4.86	> 100
COc1ccc(C2=C(c3ccc(OC)cc3)C(=O)N3CCCC3C2)cc1 (stereo not drawn)	41.9 µM	> 100 µM	21.1	> 100 µM	1.81 µM	> 40.9 µM	13.5 µM	> 100 µM	15.5	> 100	18.3 µM	> 100 µM	26.4	> 100	6.19 µM	> 100 µM	7.95 µM	77.1 µM	16.5	> 100
Cc1nc2cc(Nc3nc(Nc4ccc(F)cc4)nc(-c4cccs4)n3)ccc2n1Cc1ccccc1	5.87 µM	32.7 µM	5.45	> 100 µM	3.78 µM	20.4 µM	7.7 µM	> 100 µM	3.24	34.8	2.36 µM	5.44 µM	33.4	> 100	2.12 µM	4.44 µM	3.27 µM	12.9 µM	8.45	> 100
C[C@H](Nc1cc(Cl)nc2c1cnn2[C@@H]1O[C@H](COP(=O)(O)CP(=O)(O)O)[C@@H](O)[C@H]1O)c1ccccc1F	> 100 µM	> 100 µM	> 100	> 100 µM	> 100 µM	> 100 µM	> 100 µM	> 100 µM	> 100	> 100	> 100 µM	> 100 µM	> 100	> 100	> 100 µM	> 100 µM	> 100 µM	> 100 µM	> 100	> 100
COc1ccccc1Nc1ncc(-c2ccccc2)o1	> 25 µM	> 25 µM	> 24	> 25 µM	> 25 µM	> 25 µM	> 25 µM	> 25 µM	> 25	> 25	> 25 µM	> 25 µM	> 25	> 25	> 25 µM	> 25 µM	> 25 µM	> 25 µM	> 25	> 25
CCN(Cc1ccc(F)cc1)c1ccc(CO)c(Br)c1	15.6 µM	> 56.1 µM	1.02	15.1 µM	0.144 µM	12.1 µM	16.5 µM	> 53.1 µM	0.152	2.68	0.96 µM	12.6 µM	5.18	21.9	2.4 µM	19.4 µM	15 µM	29.4 µM	0.646	20.2
CCOC(=O)c1c(-c2ccc(OC)cc2)c(C#N)c2c(C#N)c(N)nn2c1N	4.69 µM	> 100 µM	2.95	> 100 µM	3.67 µM	30.9 µM	4.93 µM	> 100 µM	6.11	96.7	3.35 µM	26.5 µM	3.49	19.1	3.98 µM	> 100 µM	2.39 µM	8.6 µM	3.32	22.1
CSc1ccccc1C#C/C=C\C#Cc1ccccc1N	13.1 µM	37.3 µM	0.32	1.68 µM	4.69 µM	26 µM	15.4 µM	45.6 µM	29.9	71	6.13 µM	> 100 µM	31.4	96.5	25.1 µM	54.8 µM	7.2 µM	23.6 µM	5.39	26.3
CN(C)CCC(=O)C(=Cc1ccc(O)cc1)C(=O)CCN(C)C	> 100 µM	> 100 µM	16.4	32.5 µM	> 100 µM	> 100 µM	> 100 µM	> 100 µM	26.2	> 100	> 100 µM	> 100 µM	> 100	> 100	34.4 µM	> 100 µM	> 100 µM	> 100 µM	> 100	> 100
CN1CC[C@@H](c2c(O)cc(O)c3c(=O)cc(-c4ccc(C(F)(F)F)cc4Cl)oc23)[C@@H]1CO	15.2 µM	37.3 µM	14.7	39.8 µM	15.8 µM	31.4 µM	16.5 µM	37.7 µM	23.6	83.2	18.1 µM	41 µM	26.6	70	17.6 µM	33.9 µM	13.7 µM	28.8 µM	17.2	43.5

From PubChem BioAssay (NCI)
